From the NIST ThermoML archive (doi:10.1016/j.tca.2006.04.001)

Conditions: Liquid, Pycnometric method

CCCCCCCCCCCCCCCCCC [octadecane]
Conditions	specific volume [m3/kg]
299.25 K	0.00129
301.35 K	0.001292
303.35 K	0.001295
305.45 K	0.001295
307.55 K	0.001298
309.55 K	0.001301
311.65 K	0.001301
313.65 K	0.001304
315.75 K	0.001308
317.75 K	0.001311
318.65 K	0.001318
319.85 K	0.001317
320.65 K	0.001319
323.55 K	0.001323
325.45 K	0.001324
328.35 K	0.00133
330.35 K	0.001331
333.25 K	0.001335
335.15 K	0.001337
338.05 K	0.001341
341.05 K	0.001345
342.95 K	0.001346
345.85 K	0.00135
347.85 K	0.001354
350.75 K	0.001357
352.65 K	0.00136
355.55 K	0.001363
357.55 K	0.001364
360.45 K	0.001368
362.35 K	0.001372
365.25 K	0.001375
367.25 K	0.001377
370.15 K	0.001382
372.05 K	0.001385
374.95 K	0.001388
376.95 K	0.001391
379.85 K	0.001395
381.75 K	0.001398
384.75 K	0.001402
386.65 K	0.001404
389.55 K	0.001409
391.55 K	0.001411
394.45 K	0.001416
396.35 K	0.001419
399.25 K	0.001423
401.25 K	0.001425
404.15 K	0.001429
406.05 K	0.001433
408.95 K	0.001437
410.95 K	0.00144
413.85 K	0.001444
415.75 K	0.001448
418.65 K	0.001451
420.65 K	0.001455
423.55 K	0.001459
425.45 K	0.001456
428.45 K	0.001464
430.35 K	0.001464
433.25 K	0.001474
435.25 K	0.001471
438.15 K	0.001482
440.05 K	0.001478
442.95 K	0.001488
444.95 K	0.001485
447.85 K	0.001496
449.75 K	0.001498
452.65 K	0.001502
454.65 K	0.001506
457.55 K	0.001512
459.45 K	0.001513
462.45 K	0.00152
464.35 K	0.001522
467.25 K	0.00153
469.15 K	0.001528
472.15 K	0.001538
474.05 K	0.001535
476.95 K	0.001546
478.95 K	0.001545
481.85 K	0.001557
483.75 K	0.001554
486.65 K	0.001564
488.65 K	0.001562
491.55 K	0.001573
493.45 K	0.001571
496.35 K	0.001577
498.35 K	0.001582
500.25 K	0.001587
503.15 K	0.001592
505.15 K	0.001595
508.05 K	0.001602
510.95 K	0.001609
512.95 K	0.00161
515.85 K	0.001619
518.75 K	0.001623
520.65 K	0.001628
523.55 K	0.001634
525.55 K	0.001639
527.45 K	0.001644
530.35 K	0.001649
533.25 K	0.001657
535.25 K	0.001659
538.15 K	0.001666
541.05 K	0.001675
543.05 K	0.001677
545.95 K	0.001685
548.85 K	0.001691
550.75 K	0.001697
553.65 K	0.001704
555.65 K	0.001706
558.55 K	0.001714
560.45 K	0.00172
563.45 K	0.00173
566.35 K	0.001737
568.25 K	0.001741
